In ChEMBL document CHEMBL4418493, “N-hydroxyformamide compounds and compositions comprising them for use as BMP1, TLL1 and/or TLL2 inhibitors” (2018):

Tests used:
Tolloid-like protein 1 = Tolloid-like protein 1 (Homo sapiens, UniProt O43897, I156V/N221S/V284A); assay: Inhibition of recombinant human TLL1 I156V/N221S/V284A mutant expressed in CHOE1A cells pre-incubated for 10 mins before promyostatin peptide substrate addition and measured after 60 mins by FRET based assay; format: cell-based
[1] = target: T1, Bone morphogenetic protein 1 (Homo sapiens, UniProt P13497); assay: Inhibition of C-terminal FLAG-6x-His epitope tagged and N-terminal human RAGE signal sequence tagged human BMP1 (121 to 721 amino acids) expressed in CHO-E1a cells pre-incubated for 10 mins before promyostatin peptide substrate addition and measured after 60 mins using 0.5 nM BMP1 by FRET based assay; format: cell-based
T1 sequence (P13497 whole entry): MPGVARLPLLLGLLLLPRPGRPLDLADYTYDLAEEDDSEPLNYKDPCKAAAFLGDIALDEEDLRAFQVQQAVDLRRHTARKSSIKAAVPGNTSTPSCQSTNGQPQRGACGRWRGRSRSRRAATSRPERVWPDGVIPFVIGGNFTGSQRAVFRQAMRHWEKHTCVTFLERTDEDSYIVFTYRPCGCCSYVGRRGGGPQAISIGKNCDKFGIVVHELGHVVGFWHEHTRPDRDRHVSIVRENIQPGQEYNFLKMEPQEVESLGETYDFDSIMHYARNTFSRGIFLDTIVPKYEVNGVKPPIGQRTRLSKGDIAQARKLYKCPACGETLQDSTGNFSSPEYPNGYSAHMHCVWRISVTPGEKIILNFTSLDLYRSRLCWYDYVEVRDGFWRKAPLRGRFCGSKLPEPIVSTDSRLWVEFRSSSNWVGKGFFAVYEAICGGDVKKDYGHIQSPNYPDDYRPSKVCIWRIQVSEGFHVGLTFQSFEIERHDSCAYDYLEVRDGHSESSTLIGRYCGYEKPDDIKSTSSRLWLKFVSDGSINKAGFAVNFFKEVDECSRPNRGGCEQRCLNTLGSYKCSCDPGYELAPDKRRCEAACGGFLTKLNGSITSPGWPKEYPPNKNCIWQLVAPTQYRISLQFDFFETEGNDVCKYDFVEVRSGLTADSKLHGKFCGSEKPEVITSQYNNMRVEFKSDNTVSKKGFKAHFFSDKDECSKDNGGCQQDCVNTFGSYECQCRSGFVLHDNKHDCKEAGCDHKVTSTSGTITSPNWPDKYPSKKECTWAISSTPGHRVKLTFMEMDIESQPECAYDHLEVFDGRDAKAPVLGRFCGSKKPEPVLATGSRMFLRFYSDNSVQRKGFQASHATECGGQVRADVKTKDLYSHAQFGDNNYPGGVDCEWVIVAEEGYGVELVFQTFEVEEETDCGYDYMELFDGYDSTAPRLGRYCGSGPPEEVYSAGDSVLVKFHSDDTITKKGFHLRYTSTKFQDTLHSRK

[2] = Reduction in PICP levels in human cardiac fibroblasts incubated for 24 to 48 hrs by ELISA; format: functional
Tolloid-like protein 2 = target: T2, Tolloid-like protein 2 (Homo sapiens, UniProt Q9Y6L7); assay: Inhibition of C-terminal Avi-6x-His epitope tagged and N-terminal human RAGE signal sequence tagged recombinant human TLL2 (26 to 1015 amino acids) expressed in CHOE1A cells incubated for 60 mins with promyostatin peptide substrate by FRET based assay; format: cell-based
T2 sequence (Q9Y6L7 whole entry): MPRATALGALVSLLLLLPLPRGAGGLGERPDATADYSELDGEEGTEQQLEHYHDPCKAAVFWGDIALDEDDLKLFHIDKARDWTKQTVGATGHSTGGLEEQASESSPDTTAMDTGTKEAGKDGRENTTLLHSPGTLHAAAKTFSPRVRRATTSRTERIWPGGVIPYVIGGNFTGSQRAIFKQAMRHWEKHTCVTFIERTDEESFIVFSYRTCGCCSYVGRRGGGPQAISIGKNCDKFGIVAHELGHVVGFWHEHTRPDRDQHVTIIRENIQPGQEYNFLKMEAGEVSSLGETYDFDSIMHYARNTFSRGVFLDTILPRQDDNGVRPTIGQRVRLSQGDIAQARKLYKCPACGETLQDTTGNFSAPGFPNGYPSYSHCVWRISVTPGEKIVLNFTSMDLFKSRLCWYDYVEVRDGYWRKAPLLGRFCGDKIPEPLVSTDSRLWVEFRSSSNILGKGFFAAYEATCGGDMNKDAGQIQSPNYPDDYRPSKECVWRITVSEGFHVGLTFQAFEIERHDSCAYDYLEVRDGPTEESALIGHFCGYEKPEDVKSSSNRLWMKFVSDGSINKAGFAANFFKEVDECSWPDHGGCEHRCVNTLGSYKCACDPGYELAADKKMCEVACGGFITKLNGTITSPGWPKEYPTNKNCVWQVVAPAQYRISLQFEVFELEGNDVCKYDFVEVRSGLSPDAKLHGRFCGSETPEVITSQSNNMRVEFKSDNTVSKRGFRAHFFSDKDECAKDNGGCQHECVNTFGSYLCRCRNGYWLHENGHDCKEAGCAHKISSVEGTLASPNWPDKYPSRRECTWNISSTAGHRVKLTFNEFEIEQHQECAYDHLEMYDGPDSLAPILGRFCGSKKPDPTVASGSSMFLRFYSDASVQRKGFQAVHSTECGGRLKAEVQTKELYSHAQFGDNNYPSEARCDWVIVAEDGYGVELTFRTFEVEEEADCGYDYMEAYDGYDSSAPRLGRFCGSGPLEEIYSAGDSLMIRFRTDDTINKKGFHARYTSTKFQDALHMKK

[3] = Stability in pH 7.96 assessed as compound purity level at 1 mg/ml heated to 40 degC and measured at 200 hrs by LC/MS analsysis; format: physicochemical; details: buffer, read-out: Stability
[4] = Drug metabolism in heparinized pooled human plasma at pH 7.5 assessed as formation of ((2-ethoxy-4-(5-((((R)-2-((R)-1-(N-hydroxyformamido)propyl)heptanamido)methyl)carbamoyl)furan-2-yl)benzamido)methyl)phosphonic acid at 100 to 2000 ng/ml incubated up to 4 or 24 hrs by LC-MS/MS analysis; format: ADME, cell-free; details: pH 7.5, 24 h
[5] = Drug metabolism in heparinized pooled human plasma at pH 7.5 assessed as conversion to active compound at 100 to 2000 ng/ml incubated for 4 by LC-MS/MS analysis; format: ADME, cell-free
[6] = Drug metabolism in heparinized pooled human plasma at pH 7.5 assessed as formation of N-(((R)-2-((R)-1-(N-hydroxyformamido)propyl)heptanamido)methyl)-5-phenylfuran-2-carboxamide at 100 to 2000 ng/ml incubated up to 4 or 24 hrs by LC-MS/MS analysis; format: ADME, cell-free; details: pH 7.5, 24 h
[7] = Drug metabolism in heparinized pooled human plasma at pH 7.5 assessed as formation of (3-ethoxy-5-(5-((((R)-2-((R)-1-(N-hydroxyformamido)propyl)heptanamido)methyl)carbamoyl) furan-2-yl)phenyl)phosphonic acid at 100 to 2000 ng/ml incubated up to 4 or 24 hrs by LC-MS/MS analysis; format: ADME, cell-free; details: pH 7.5, 24 h
[8] = Drug metabolism in heparinized pooled human plasma at pH 7.5 assessed as formation of 4-(5-((((R)-2-((R)-1-(N-hydroxyformamido) propyl)heptanamido)methyl)carbamoyl)furan-2-yl)benzoic acid at 100 to 2000 ng/ml incubated up to 4 or 24 hrs by LC-MS/MS analysis; format: ADME, cell-free; details: pH 7.5, 24 h
[9] = Reduction in mature collagen deposition levels in human cardiac fibroblasts incubated for 24 to 48 hrs by immunostaining based assay; format: functional

Chain of Tolloid-like protein 1 (O43897 148-1013 I156V/N221S/V284A limits assumed): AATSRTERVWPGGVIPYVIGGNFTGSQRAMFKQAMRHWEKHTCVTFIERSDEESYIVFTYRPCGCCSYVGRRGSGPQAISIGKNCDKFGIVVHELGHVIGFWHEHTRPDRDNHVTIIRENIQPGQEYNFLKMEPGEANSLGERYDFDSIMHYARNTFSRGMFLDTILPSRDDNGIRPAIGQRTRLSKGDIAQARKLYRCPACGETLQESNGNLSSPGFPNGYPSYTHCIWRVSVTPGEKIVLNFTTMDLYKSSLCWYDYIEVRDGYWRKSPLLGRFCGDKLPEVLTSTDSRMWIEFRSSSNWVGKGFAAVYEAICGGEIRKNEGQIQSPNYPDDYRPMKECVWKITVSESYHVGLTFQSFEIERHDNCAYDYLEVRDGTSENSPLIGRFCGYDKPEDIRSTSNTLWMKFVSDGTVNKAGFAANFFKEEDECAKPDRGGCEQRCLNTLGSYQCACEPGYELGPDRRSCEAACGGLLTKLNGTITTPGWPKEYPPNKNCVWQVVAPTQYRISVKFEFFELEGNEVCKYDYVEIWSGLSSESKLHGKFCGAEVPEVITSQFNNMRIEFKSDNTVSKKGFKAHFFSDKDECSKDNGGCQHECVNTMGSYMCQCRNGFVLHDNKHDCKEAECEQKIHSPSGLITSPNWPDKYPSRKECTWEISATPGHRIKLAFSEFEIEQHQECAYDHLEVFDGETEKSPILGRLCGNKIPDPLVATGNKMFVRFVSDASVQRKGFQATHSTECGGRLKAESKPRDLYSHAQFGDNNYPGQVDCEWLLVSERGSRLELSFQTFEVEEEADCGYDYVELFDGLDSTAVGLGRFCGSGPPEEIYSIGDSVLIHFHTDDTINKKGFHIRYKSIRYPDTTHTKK

| SMILES | IC50 (Tolloid-like protein 1) [nM] | IC50 [1] [nM] | IC50 [2] [nM] | IC50 (Tolloid-like protein 2) [nM] | further results |
| --- | --- | --- | --- | --- | --- |
| CCCCC[C@@H](C(=O)NCNC(=O)c1ccc(-c2ccc(C(=O)N[C@@H](CC(=O)OC)C(=O)OC)c(OCC(=O)OC)c2)o1)[C@@H](CC)N(O)C=O | 251 to 398 | 126 to 316 | 398 to 3980 | 398 to 794 | remaining at 200 h, 1 mg/ml [3]: < 80% |
| CCCCC[C@@H](C(=O)NCNC(=O)c1ccc(-c2ccc(C(=O)NCP(=O)(O)O)c(OCC)c2)o1)[C@@H](CC)N(C=O)OC(=O)c1ccc(CN2CCOCC2)cc1C.O=C(O)C(F)(F)F |  |  | < 3980 |  | Drug metabolism [4]: Metabolite_Detected |
| CCCCC[C@@H](C(=O)NCNC(=O)c1ccc(-c2ccc(C(=O)OCCCC)cc2)o1)[C@@H](CC)N(O)C=O | 251 to 398 | 126 to 316 | 398 to 3980 | 398 to 794 |  |
| CCCCC[C@@H](C(=O)NCNC(=O)c1ccc(-c2ccccc2)o1)[C@@H](CC)N(C=O)OC(=O)Cc1ccccc1 |  |  | < 3980 |  | Drug metabolism [5]: > 10%; Drug metabolism [6]: Metabolite_Detected; remaining at 200 h, 1 mg/ml [3]: < 80% |
| CCCCC[C@@H](C(=O)NCNC(=O)c1ccc(-c2cc(OCC)cc(P(=O)(OCOC(C)=O)OCOC(C)=O)c2)o1)[C@@H](CC)N(O)C=O | 251 to 398 | 126 to 316 | 398 to 3980 | 398 to 794 | Drug metabolism [7]: Metabolite_Detected |
| CCCCC[C@@H](C(=O)NCNC(=O)c1ccc(-c2ccc(C(=O)N[C@@H](CC(=O)O)C(=O)OC(C)(C)C)c(OCC)c2)o1)[C@@H](CC)N(O)C=O | 251 to 398 | 126 to 316 | 398 to 3980 | 398 to 794 |  |
| CCCCC[C@@H](C(=O)NCNC(=O)c1ccc(-c2ccccc2)o1)[C@@H](CC)N(C=O)OC(=O)C(C)(C)C |  |  | < 3980 |  | Drug metabolism [5]: > 10%; Drug metabolism [6]: Metabolite_Detected; remaining at 200 h, 1 mg/ml [3]: < 80% |
| CCCCC[C@@H](C(=O)NCNC(=O)c1ccc(-c2ccc(C(=O)OCCc3ccccc3)cc2)o1)[C@@H](CC)N(O)C=O |  |  | < 3980 |  | Drug metabolism [8]: Metabolite_Detected |
| CCCCC[C@@H](C(=O)NCNC(=O)c1ccc(-c2ccccc2)o1)[C@@H](CC)N(C=O)OC(=O)c1ccccc1 |  |  | < 3980 |  | Drug metabolism [5]: > 10%; Drug metabolism [6]: Metabolite_Detected; remaining at 200 h, 1 mg/ml [3]: < 80% |
| CCCCC[C@@H](C(=O)NCNC(=O)c1ccc(-c2ccc(C(=O)N[C@@H](CC(=O)OC(C)(C)C)C(=O)OC(C)(C)C)c(OCC)c2)o1)[C@@H](CC)N(O)C=O | 251 to 398 | 126 to 316 | 398 to 3980 | 398 to 794 | IC50 [9]: < 1000 nM |
| CCCCC[C@@H](C(=O)NCNC(=O)c1ccc(-c2cc(OCC)cc(P(=O)(O)OCOC(=O)OC(C)C)c2)o1)[C@@H](CC)N(O)C=O | < 251 | < 316 | < 398 | < 398 |  |
| CCCCC[C@@H](C(=O)NCNC(=O)c1ccc(-c2ccc(C(=O)OCC)cc2)o1)[C@@H](CC)N(O)C=O | 251 to 398 | 126 to 316 | 398 to 3980 | 398 to 794 |  |
| CCCCC[C@@H](C(=O)NCNC(=O)c1ccc(-c2ccc(C(=O)N[C@@H](CC(=O)O)C(=O)OCOC(=O)c3ccccc3)c(OCC)c2)o1)[C@@H](CC)N(O)C=O | < 251 | < 316 | < 398 | < 398 |  |
| CCCCC[C@@H](C(=O)NCNC(=O)c1ccc(-c2ccccc2)o1)[C@@H](CC)N(C=O)OC(=O)OC |  |  | < 3980 |  | Drug metabolism [5]: > 10%; Drug metabolism [6]: Metabolite_Detected; remaining at 200 h, 1 mg/ml [3]: < 80% |
| CCCCC[C@@H](C(=O)NCNC(=O)c1ccc(-c2ccc(C(=O)OCC(=O)N(C)C)cc2)o1)[C@@H](CC)N(O)C=O |  |  | < 3980 |  | Drug metabolism [8]: Metabolite_Detected |
| CCCCC[C@@H](C(=O)NCNC(=O)c1ccc(-c2ccccc2)o1)[C@@H](CC)N(C=O)OCOP(=O)(O)O.N.N |  |  |  |  | Drug metabolism [6]: Metabolite_Detected |
| CCCCC[C@@H](C(=O)NCNC(=O)c1ccc(-c2ccccc2)o1)[C@@H](CC)N(C=O)OC(=O)OC(C)(C)C |  |  | < 3980 |  | Drug metabolism [5]: > 10%; Drug metabolism [6]: Metabolite_Detected; IC50 [9]: < 1000 nM; remaining at 200 h, 1 mg/ml [3]: < 80% |
| CCCCC[C@@H](C(=O)NCNC(=O)c1ccc(-c2ccc(C(=O)O)cc2)o1)[C@@H](CC)N(C=O)OC(=O)c1ccccc1 |  |  |  |  | Drug metabolism [8]: Metabolite_Detected |
| CCCCC[C@@H](C(=O)NCNC(=O)c1ccc(-c2ccc(C(=O)OCCN3CCOCC3)cc2)o1)[C@@H](CC)N(O)C=O |  |  | < 3980 |  | Drug metabolism [8]: Metabolite_Detected |
| CCCCC[C@@H](C(=O)NCNC(=O)c1ccc(-c2ccc(C(=O)OCCN(C)C)cc2)o1)[C@@H](CC)N(O)C=O | 251 to 398 | 126 to 316 | 398 to 3980 | 398 to 794 |  |
| CCCCC[C@@H](C(=O)NCNC(=O)c1ccc(-c2cc(OCC)cc(P(=O)(O)Oc3ccccc3)c2)o1)[C@@H](CC)N(O)C=O | < 251 | < 316 | < 398 | < 398 |  |
| CCCCC[C@@H](C(=O)NCNC(=O)c1ccc(-c2ccc(C(=O)N[C@@H](CC(=O)O)C(=O)OCC)c(OCC)c2)o1)[C@@H](CC)N(O)C=O | 251 to 398 | 126 to 316 | 398 to 3980 | 398 to 794 | IC50 [9]: < 1000 nM |
| CCCCC[C@@H](C(=O)NCNC(=O)c1ccc(-c2ccc(C(=O)N[C@@H](CC(=O)OCC)C(=O)OCC)c(OCC)c2)o1)[C@@H](CC)N(O)C=O | 251 to 398 | 126 to 316 | 398 to 3980 | 398 to 794 |  |
